Measured values taken from patent publication US8575091B1, “Amylin analogues and pharmaceutical compositions thereof” (Novo Nordisk A/S, priority 2012, dated 2013).
pEC50, pIC50: −log10 of the molar value. Where two headings read alike, the source gives them in different places. Numbered stars: 1 amine (or outer) side, 2 acyl side, 3 side chain; on linkers, the order of the positions; unused ones are H or OH. Bridge positions count the residues as written; N and C are the ends. Side chains are listed from the residue outwards. Peptide text beside a SMILES is read from it. * marks the point of attachment. C20 diacid = O=C(O)CCCCCCCCCCCCCCCCCCC(=O)*; γGlu = O=C(O)[C@H](CCC(=O)[*:2])N[*:1]; AEEA = NCCOCCOCC(=O)O

What was measured:
[1] = target: T1, human amylin receptor (Homo sapiens, UniProt O60896+P30988); assay: Assay (V) binding to the human amylin receptor (SPA, 125I-rat amylin); conditions: human amylin receptor membranes, SPA; read-out: hAmylin-R bind IC50
T1 construct: expressed in transfected cells
T1 sequence (P30988 25-474): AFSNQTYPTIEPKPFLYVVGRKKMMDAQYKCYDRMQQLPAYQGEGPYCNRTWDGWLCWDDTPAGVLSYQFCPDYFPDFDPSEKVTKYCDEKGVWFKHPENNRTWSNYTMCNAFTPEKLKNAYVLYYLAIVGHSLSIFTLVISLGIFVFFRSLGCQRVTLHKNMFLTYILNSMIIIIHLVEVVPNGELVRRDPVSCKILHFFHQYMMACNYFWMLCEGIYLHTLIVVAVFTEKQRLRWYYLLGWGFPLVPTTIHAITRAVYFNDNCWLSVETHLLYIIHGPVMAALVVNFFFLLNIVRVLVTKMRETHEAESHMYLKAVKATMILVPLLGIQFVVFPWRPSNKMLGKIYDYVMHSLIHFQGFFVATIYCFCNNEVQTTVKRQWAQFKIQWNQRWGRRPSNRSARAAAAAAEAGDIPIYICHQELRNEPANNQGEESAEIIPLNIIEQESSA
T1 sequence (O60896 24-148 partner): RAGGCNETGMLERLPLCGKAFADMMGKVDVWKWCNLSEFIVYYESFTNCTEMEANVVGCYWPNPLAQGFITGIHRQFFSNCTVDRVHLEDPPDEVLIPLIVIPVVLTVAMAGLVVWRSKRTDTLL
Method in brief: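 IC50, taken as receptor affinity, came from one-site binding competition analysis of scintillation proximity counts. Amylin 3(a)/CRE-luc cell membranes (35 ng/μL final) were mixed with SPA beads (0.05 mg/well) in 50 mM Hepes pH 7.4 containing CaCl2, MgCl2, 0.1% OA and 0.02% Tween20.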

[2] = target: T2, human calcitonin receptor (Homo sapiens, UniProt P30988); assay: Assay (VII) binding to the human calcitonin receptor (SPA, 125I-Calcitonin); conditions: read-out: hCTR bind IC50;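 further: cell membranes coupled to SPA beads, competitive displacement read by scintillation counting, IC50 derived from a one-site competition fit as a measure of receptor affinity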
T2 construct: expressed in transfected cells
T2 sequence (P30988 25-474): T1 sequence (P30988 25-474)
Method: Membranes were prepared in the following way; the cells were rinsed with PBS and incubated with Versene for approximately 5 min before harvesting. The cells were flushed with PBS and the cell-suspension was centrifuged for 5 min at 1000 rpm. […] The resulting pellet was resuspended in buffer 2 and protein concentration was measured (BCA protein Assay, Pierce). The homogenate was kept cold during the whole procedure. The membranes were kept at −80° C. until use. Assay was performed in a 384 well Optiplate (PerkinElmer) in a total volume of 40 ul. Membranes were mixed with SPA beads. Final concentration of membranes 35 ng/μL final and Final concentration of SPA beads was 0.05 mg/well. Test-compounds were dissolved in DMSO and further diluted in assay buffer (50 mM Hepes, pH 7.4, 1 mM CaCl2, 5 mM MgCl2, 0.1% OA and 0.02% Tween20). […] Samples were analyzed on TopCounter™ (Packard). The IC50 was calculated using (one site binding competition analysis) GraphPad Prism5 as a measure of receptor affinity.

[3] = target: T3, human amylin receptor (amylin 3(a) receptor: human calcitonin receptor + RAMP-3) (Homo sapiens, UniProt O60896+P30988); assay: Assay (II)a functional assay, human amylin receptor (CRE luciferase, BHK cells); format: cell-based; conditions: for pEC50: read-out: hAmylin-R funct. EC50
T3 construct: expressed in transfected cells
T3 sequence (P30988 25-474): T1 sequence (P30988 25-474)
T3 sequence (O60896 24-148 partner): T1 sequence (O60896 24-148 partner)

[4] = target: T2, human calcitonin receptor; assay: Assay (II)a functional assay, human calcitonin receptor (CRE luciferase, BHK cells);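 further: luminescence from a CRE-driven luciferase reporter, read by single photon counting after cells were exposed to test samples for 3 h at 37 °C under 5% CO2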; format: cell-based; conditions: read-out: hCTR funct. EC50
[5] = Table 6, human functional selectivity (hCTR EC50 / hAmylin-R EC50)
[6] = Table 6a, human functional selectivity (hCTR EC50 / hAmylin-R EC50), at least 5
[7] = Table 6j, hCTR funct. EC50 / hAmylin-R funct. EC50
[8] = Table 6k, hCTR funct. EC50 / hAmylin-R funct. EC50
[9] = functional assay, human amylin receptor
[10] = Table 6j, human amylin receptor functional

| Structure (SMILES) | pIC50 [1] | pIC50 [2] | Ratio hCT/hAmylin funct. [3, 5] | Ratio hCT/hAmylin funct. [3, 6] | Ratio hCT/hAmylin funct. [3, 7] | Ratio hCT/hAmylin funct. [3, 8] | pEC50 [3, 9] | pEC50 [4] | pEC50 [3, 10] |
| --- | --- | --- | --- | --- | --- | --- | --- | --- | --- |
| CC[C@H](C)[C@H](NC(=O)[C@H](C)NC(=O)CNC(=O)[C@H](Cc1ccccc1)NC(=O)[C@H](CC(N)=O)NC(=O)[C@@H]1CCCN1C(=O)[C@H](CO)NC(=O)[C@H](CO)NC(=O)[C@H](Cc1c[nH]cn1)NC(=O)[C@H](CCCNC(=N)N)NC(=O)[C@H](CC(C)C)NC(=O)[C@H](Cc1ccccc1)NC(=O)[C@H](CC(N)=O)NC(=O)[C@H](C)NC(=O)[C@H](CC(C)C)NC(=O)[C@H](CCCNC(=N)N)NC(=O)[C@H](CCC(N)=O)NC(=O)[C@@H](NC(=O)[C@H](C)NC(=O)[C@@H]1CSSC[C@H](NC(=O)[C@H](CCCNC(=N)N)NC(=O)CNC(=O)CC[C@H](NC(=O)CCCCCCCCCCCCCCCCCCC(=O)O)C(=O)O)C(=O)N[C@@H](CC(N)=O)C(=O)N[C@@H]([C@@H](C)O)C(=O)N[C@@H](C)C(=O)N[C@@H]([C@@H](C)O)C(=O)N1)[C@@H](C)O)C(=O)N1CCC[C@H]1C(=O)N[C@@H](CO)C(=O)N[C@@H](CO)C(=O)N[C@H](C(=O)N[C@@H](CC(N)=O)C(=O)N[C@H](C(=O)NCC(=O)N[C@@H](CO)C(=O)N[C@@H](Cc1c[nH]cn1)C(=O)N[C@H](C(=O)N[C@@H](Cc1ccc(O)cc1)C(N)=O)[C@@H](C)O)C(C)C)[C@@H](C)O [Example 47] ({C20 diacid-γGlu}-GRCNTATCATQRLANFLRHSSPNFGAIPSSTNVGSHTY-NH2; disulfide 3-8) | 9.46 | 7.81 | 6.0 | 6.0 | 6.0 | 6.0 | 9.65 | 8.88 | – |
| CC[C@H](C)[C@H](NC(=O)[C@H](C)NC(=O)CNC(=O)[C@H](Cc1ccccc1)NC(=O)[C@H](CC(N)=O)NC(=O)[C@@H]1CCCN1C(=O)[C@H](CO)NC(=O)[C@H](CO)NC(=O)[C@H](Cc1c[nH]cn1)NC(=O)[C@H](CCCNC(=N)N)NC(=O)[C@H](CC(C)C)NC(=O)[C@H](Cc1ccccc1)NC(=O)[C@H](CC(N)=O)NC(=O)[C@H](C)NC(=O)[C@H](CC(C)C)NC(=O)[C@H](CCCNC(=N)N)NC(=O)[C@H](CCC(N)=O)NC(=O)[C@@H](NC(=O)[C@H](C)NC(=O)[C@@H]1CSSC[C@H](NC(=O)[C@@H](N)CCCCNC(=O)COCCOCCNC(=O)CC[C@H](NC(=O)CCCCCCCCCCCCCCCCCCC(=O)O)C(=O)O)C(=O)N[C@@H](CC(N)=O)C(=O)N[C@@H]([C@@H](C)O)C(=O)N[C@@H](C)C(=O)N[C@@H]([C@@H](C)O)C(=O)N1)[C@@H](C)O)C(=O)N1CCC[C@H]1C(=O)N[C@@H](CO)C(=O)N[C@@H](CO)C(=O)N[C@H](C(=O)N1CCC[C@H]1C(=O)N[C@H](C(=O)NCC(=O)N[C@@H](CO)C(=O)N[C@@H](CC(N)=O)C(=O)N[C@H](C(=O)N[C@@H](Cc1ccc(O)cc1)C(N)=O)[C@@H](C)O)C(C)C)[C@@H](C)O [Example 49] | 8.92 | 7.89 | – | – | – | – | 9.97 | 8.62 | – |
| CC[C@H](C)[C@H](NC(=O)[C@H](C)NC(=O)CNC(=O)[C@H](Cc1ccccc1)NC(=O)[C@H](CC(N)=O)NC(=O)[C@@H]1CCCN1C(=O)[C@H](CO)NC(=O)[C@H](CO)NC(=O)[C@H](Cc1c[nH]cn1)NC(=O)[C@H](CCCNC(=N)N)NC(=O)[C@H](CC(C)C)NC(=O)[C@H](Cc1ccccc1)NC(=O)[C@H](CC(N)=O)NC(=O)[C@H](C)NC(=O)[C@H](CC(C)C)NC(=O)[C@H](CCCNC(=N)N)NC(=O)[C@H](CCC(N)=O)NC(=O)[C@@H](NC(=O)[C@H](C)NC(=O)[C@@H]1CSSC[C@H](NC(=O)[C@@H](N)CCCCNC(=O)COCCOCCNC(=O)CC[C@H](NC(=O)CCCCCCCCCCCCCCCCCCC(=O)O)C(=O)O)C(=O)N[C@@H](CC(N)=O)C(=O)N[C@@H]([C@@H](C)O)C(=O)N[C@@H](C)C(=O)N[C@@H]([C@@H](C)O)C(=O)N1)[C@@H](C)O)C(=O)N1CCC[C@H]1C(=O)N1CCC[C@H]1C(=O)N[C@@H](CO)C(=O)N[C@H](C(=O)N1CCC[C@H]1C(=O)N[C@H](C(=O)NCC(=O)N[C@@H](CO)C(=O)N[C@@H](CC(N)=O)C(=O)N[C@H](C(=O)N[C@@H](Cc1ccc(O)cc1)C(N)=O)[C@@H](C)O)C(C)C)[C@@H](C)O [Example 53] (H-K([AEEA-γGlu-C20 diacid])CNTATCATQRLANFLRHSSPNFGAIPPSTPVGSNTY-NH2; disulfide 2-7) | 10.28 | 8.27 | 9.8 | 9.8 | 9.8 | 9.8 | – | 9.20 | 10.19 |
| CC[C@H](C)[C@H](NC(=O)[C@H](C)NC(=O)CNC(=O)[C@H](Cc1ccccc1)NC(=O)[C@H](CC(N)=O)NC(=O)[C@@H]1CCCN1C(=O)[C@H](CO)NC(=O)[C@H](CO)NC(=O)[C@H](Cc1c[nH]cn1)NC(=O)[C@H](CCCNC(=N)N)NC(=O)[C@H](CC(C)C)NC(=O)[C@H](Cc1ccccc1)NC(=O)[C@H](CC(N)=O)NC(=O)[C@H](C)NC(=O)[C@H](CC(C)C)NC(=O)[C@H](CCCNC(=N)N)NC(=O)[C@H](CCC(N)=O)NC(=O)[C@@H](NC(=O)[C@H](C)NC(=O)[C@@H]1CSSC[C@H](NC(=O)[C@@H](N)CCCCNC(=O)COCCOCCNC(=O)CC[C@H](NC(=O)CCCCCCCCCCCCCCCCCCC(=O)O)C(=O)O)C(=O)N[C@@H](CC(N)=O)C(=O)N[C@@H]([C@@H](C)O)C(=O)N[C@@H](C)C(=O)N[C@@H]([C@@H](C)O)C(=O)N1)[C@@H](C)O)C(=O)N1CCC[C@H]1C(=O)N[C@@H](CO)C(=O)N1CCC[C@H]1C(=O)N[C@H](C(=O)N[C@@H](CC(N)=O)C(=O)N[C@H](C(=O)NCC(=O)N1CCC[C@H]1C(=O)N[C@@H](CC(N)=O)C(=O)N[C@H](C(=O)N[C@@H](Cc1ccc(O)cc1)C(N)=O)[C@@H](C)O)C(C)C)[C@@H](C)O [Example 56] (H-K([AEEA-γGlu-C20 diacid])CNTATCATQRLANFLRHSSPNFGAIPSPTNVGPNTY-NH2; disulfide 2-7) | 10.31 | 8.68 | 5.0 | 5.0 | 5.0 | 5.0 | – | 9.30 | 9.99 |
| CC[C@H](C)[C@H](NC(=O)[C@H](C)NC(=O)CNC(=O)[C@H](Cc1ccccc1)NC(=O)[C@H](CC(N)=O)NC(=O)[C@@H]1CCCN1C(=O)[C@H](CO)NC(=O)[C@H](CO)NC(=O)[C@H](Cc1c[nH]cn1)NC(=O)[C@H](CCCNC(=N)N)NC(=O)[C@H](CC(C)C)NC(=O)[C@H](Cc1ccccc1)NC(=O)[C@H](CC(N)=O)NC(=O)[C@H](C)NC(=O)[C@H](CC(C)C)NC(=O)[C@H](CCCNC(=N)N)NC(=O)[C@H](CCC(N)=O)NC(=O)[C@@H](NC(=O)[C@H](C)NC(=O)[C@@H]1CSSC[C@H](NC(=O)[C@@H](N)CCCCNC(=O)CC[C@H](NC(=O)CCCCCCCCCCCCCCCCCCC(=O)O)C(=O)O)C(=O)N[C@@H](CC(N)=O)C(=O)N[C@@H]([C@@H](C)O)C(=O)N[C@@H](C)C(=O)N[C@@H]([C@@H](C)O)C(=O)N1)[C@@H](C)O)C(=O)N1CCC[C@H]1C(=O)N[C@@H](CO)C(=O)N[C@@H](CO)C(=O)N[C@H](C(=O)N[C@@H](CC(N)=O)C(=O)N[C@H](C(=O)NCC(=O)N[C@@H](CO)C(=O)N[C@@H](Cc1c[nH]cn1)C(=O)N[C@H](C(=O)N[C@@H](Cc1ccc(O)cc1)C(N)=O)[C@@H](C)O)C(C)C)[C@@H](C)O [Example 60] | 9.16 | 7.50 | – | – | – | – | 9.45 | 8.27 | – |
| CC[C@H](C)[C@H](NC(=O)[C@H](C)NC(=O)CNC(=O)[C@H](Cc1ccccc1)NC(=O)[C@H](CC(N)=O)NC(=O)[C@@H]1CCCN1C(=O)[C@H](CO)NC(=O)[C@H](CO)NC(=O)[C@H](Cc1c[nH]cn1)NC(=O)[C@H](CCCNC(=N)N)NC(=O)[C@H](CC(C)C)NC(=O)[C@H](Cc1ccccc1)NC(=O)[C@H](Cc1c[nH]cn1)NC(=O)[C@H](C)NC(=O)[C@H](CC(C)C)NC(=O)[C@H](CCCNC(=N)N)NC(=O)[C@H](CCC(N)=O)NC(=O)[C@@H](NC(=O)[C@H](C)NC(=O)[C@@H]1CSSC[C@H](NC(=O)[C@@H](N)CCCCNC(=O)COCCOCCNC(=O)CC[C@H](NC(=O)CCCCCCCCCCCCCCCCCCC(=O)O)C(=O)O)C(=O)N[C@@H](CC(N)=O)C(=O)N[C@@H]([C@@H](C)O)C(=O)N[C@@H](C)C(=O)N[C@@H]([C@@H](C)O)C(=O)N1)[C@@H](C)O)C(=O)N1CCC[C@H]1C(=O)N[C@@H](CO)C(=O)N[C@@H](CO)C(=O)N[C@H](C(=O)N1CCC[C@H]1C(=O)N[C@H](C(=O)NCC(=O)N[C@@H](CO)C(=O)N[C@@H](CC(N)=O)C(=O)N[C@H](C(=O)N[C@@H](Cc1ccc(O)cc1)C(N)=O)[C@@H](C)O)C(C)C)[C@@H](C)O [Example 61] (H-K([AEEA-γGlu-C20 diacid])CNTATCATQRLAHFLRHSSPNFGAIPSSTPVGSNTY-NH2; disulfide 2-7) | 9.91 | 8.09 | – | – | – | – | 10.29 | 9.26 | – |
